Assays:
Type in all cases: cell-based, human
LB1158 CD4+ clone 22 = assay: IFN-γ production by CD4+ clone 22 stimulated with peptide- or protein-pulsed EBV-B cells; details: for IFN-γ production after stimulation with peptide of clone 22: 1 μg/ml peptide
Procedure: (§1) In order to confirm the efficacy of this protocol, dendritic cells were fed with the MAGE-3 protein, using conditions described above, to stimulate autologous CD4^+ T lymphocytes from hemochromatosis patient LB1158 or from melanoma patient 7002. After four restimulations, the specific production of IFN-γ by an aliquot of each of the microcultures stimulated with the autologous EBV-B cells loaded with MAGE-A3 were tested on day 35 for patient LB1158 and day 37 for patient 7002. For each individual, one positive microculture was cloned using autologous EBV-B cells as stimulating cells, either retrotransduced with MFG Ii MAGE-A3 for LB1158, or fed with protein MAGE-A3 for patient 7002. […] Specifically, autologous EBV-B cells were incubated for 20 h in the presence of 20 μg/ml of recombinant His-MAGE-A3 protein. Clone 22 (2500 cells) was incubated overnight with 5000 MAGE-A3 loaded EBV-B cells in round botton microwells in the presence or absence of monoclonal antibodies which recognize HLA-A,B,C (W6/32) or HLA-DR (2B6). IFN-γ secretion was measured after 20 h by ELISA (FIG. 15A).
(§2) Peptides corresponding to parts of MAGE-A3 (e.g., MAGE107-122, MAGE111-126, MAGE115-130, MAGE119-134) were tested for recognition by clone 2 and 22. HLA-DR13 EBV-B cells were pulsed for 2 h with different concentrations of these peptides. Clones 2 and 37 (2500 cells) were incubated with 5000 peptide pulsed cells in round-bottomed microwells for 20 h and assayed for IFN-γ production.
(§3) Autologous or allogeneic EBV-B cells were pulsed for 2 h with 1 μg/ml MAGE-A3119-134 peptide, and then washed. Clones 2 or 22 were incubated with 5000 peptide-pulsed EBV-B cells in round-bottomed microwells for 20 h and the clones' reactivity to the EBV-B cells was measured by ELISA as IFN-γ secretion. Experiments were performed in triplicate.
(§4) Unlike HLA-class I-restricted peptides, class II-restricted peptides usually vary in length and tolerate extensions at both the amino and carboxy termini, because they are not fixed by their ends in the groove. It is therefore difficult to define precisely the length of the antigenic peptide. Therefore a large number of MAGE-A3 peptides were tested at different concentrations (Tables IV and V). […] 2500 cells of clone 37 were then cocultured for 20 h in round-bottomed microwells with 5000 peptide-pulsed cells. IFN-γ released in the supernatant of the cocultures was measured in an ELISA assay. The experiments were performed in triplicate. […] Clones 2 and 22 (2500 cells) were then cocultured for 20 h in round-bottomed microwells with 5000 peptide-pulsed cells. IFN-γ released in the supernatant of the cocultures was measured in an ELISA assay. The experiments was performed twice in duplicates.

[1] = tested on: CD4+ clone 436/B6.34 (B6/34); assay: TNF/IFN-γ production by CD4+ clone B6/34 stimulated with peptide-pulsed EBV-B cells
Procedure: In order to identify the MAGE-A3 peptides recognized by these CD4^+ clones, 16 amino acid peptides, corresponding to parts of the MAGE-A3 protein sequence were synthesized, loaded on the autologous EBV-B cells and tested for recognition (FIGS. 4 and 5). Peptides were synthesized using F-moc for transient NH2-terminal protection and were characterized using mass spectrometry. All peptides were >80% pure as indicated by analytical HPLC. Lyophilized synthetic peptides were dissolved in DMSO (Merck) and used at a final concentration of 500 μM, 50 μM or 5 μg/ml. EBV-B cells (5,000 per round-bottomed microwell) were incubated 2 hours at 37° C., 8% CO2 in the presence of the different peptides, the indicated concentrations representing the peptide concentration during the incubation step. CD4^+ clones were then added at 2,500 cells per well. Assay medium was Iscove's medium supplemented with L-glutamine, L-arginine, L-asparagine, 10% human serum and IL-2 (25 U/ml). After 18-20 hours, supernatants were harvested and assessed for TNF-α and/or IFN-γ secretion. IFN-γ production was measured using an ELISA test (20-4000 pg/ml) developed in the laboratory with reagents from Medgenix Diagnostics-Biosource (Fleurus, Belgium).

7002 CD4+ clone 2 = assay: IFN-γ production by CD4+ clone 2 stimulated with peptide- or protein-pulsed EBV-B cells; details: for IFN-γ production after stimulation with peptide of clone 2: 1 μg/ml peptide
Procedure: as §1, §2, §3, §4

[2] = EBV-B cell line 7002, DR13 positive
[3] = EBV-B cell line BM16, DR13 negative
[4] = EBV-B cell line BOB, DR13 negative
[5] = EBV-B cell line BOLETH, DR13 negative
[6] = EBV-B cell line LB1118, DR13 positive
[7] = EBV-B cell line LB1158, DR13 positive
[8] = EBV-B cell line LB1622, DR13 positive
[9] = EBV-B cell line LB1859, DR13 positive
[10] = EBV-B cell line LB1861, DR13 positive
[11] = EBV-B cell line LB1869, DR13 positive
[12] = EBV-B cell line LKT3, DR13 negative
[13] = EBV-B cell line MZ2, DR13 positive
[14] = EBV-B cell line OLGA, DR13 negative
[15] = EBV-B cell line OMW, DR13 positive
[16] = EBV-B cell line RML, DR13 negative
[17] = EBV-B cell line RSH, DR13 negative
[18] = EBV-B cell line TAB089, DR13 negative
[19] = EBV-B cell line TISI, DR13 negative
[20] = EBV-B cell line VAF, DR13 negative
[21] = EBV-B cell line VET, DR13 negative

Molecule: FLLLKYRAREPVTKAE (listed as Homo sapiens) [MAGE-A3119-134]
- IFN-γ production after stimulation with peptide of clone 22 (LB1158 CD4+ clone 22; [2]): >4000 pg/mL
- IFN-γ production after stimulation with peptide of clone 22 (LB1158 CD4+ clone 22; [3]): 7 pg/mL
- IFN-γ production after stimulation with peptide of clone 22 (LB1158 CD4+ clone 22; [4]): 46 pg/mL
- IFN-γ production after stimulation with peptide of clone 22 (LB1158 CD4+ clone 22; [5]): 6 pg/mL
- IFN-γ production after stimulation with peptide of clone 22 (LB1158 CD4+ clone 22; [6]): 1345 pg/mL
- IFN-γ production after stimulation with peptide of clone 22 (LB1158 CD4+ clone 22; [7]): 3967 pg/mL
- IFN-γ production after stimulation with peptide of clone 22 (LB1158 CD4+ clone 22; [8]): 1250 pg/mL
- IFN-γ production after stimulation with peptide of clone 22 (LB1158 CD4+ clone 22; [9]): >4000 pg/mL
- IFN-γ production after stimulation with peptide of clone 22 (LB1158 CD4+ clone 22; [10]): 3865 pg/mL
- IFN-γ production after stimulation with peptide of clone 22 (LB1158 CD4+ clone 22; [11]): >4000 pg/mL
- IFN-γ production after stimulation with peptide of clone 22 (LB1158 CD4+ clone 22; [12]): 0 pg/mL
- IFN-γ production after stimulation with peptide of clone 22 (LB1158 CD4+ clone 22; [13]): 2030 pg/mL
- IFN-γ production after stimulation with peptide of clone 22 (LB1158 CD4+ clone 22; [14]): 0 pg/mL
- IFN-γ production after stimulation with peptide of clone 22 (LB1158 CD4+ clone 22; [15]): 3651 pg/mL
- IFN-γ production after stimulation with peptide of clone 22 (LB1158 CD4+ clone 22; [16]): 6 pg/mL
- IFN-γ production after stimulation with peptide of clone 22 (LB1158 CD4+ clone 22; [17]): 0 pg/mL
- IFN-γ production after stimulation with peptide of clone 22 (LB1158 CD4+ clone 22; [18]): 0 pg/mL
- IFN-γ production after stimulation with peptide of clone 22 (LB1158 CD4+ clone 22; [19]): 4 pg/mL
- IFN-γ production after stimulation with peptide of clone 22 (LB1158 CD4+ clone 22; [20]): 49 pg/mL
- IFN-γ production after stimulation with peptide of clone 22 (LB1158 CD4+ clone 22; [21]): 56 pg/mL
- stimulation of clone 22 (LB1158 CD4+ clone 22; similar experiments): also stimulated
- activation of clone B6/34 by 16 amino acid peptides [1]: unable to activate
- IFN-γ production after stimulation with peptide of clone 2 (7002 CD4+ clone 2; [2]): >4000 pg/mL
- IFN-γ production after stimulation with peptide of clone 2 (7002 CD4+ clone 2; [3]): 12 pg/mL
- IFN-γ production after stimulation with peptide of clone 2 (7002 CD4+ clone 2; [4]): 59 pg/mL
- IFN-γ production after stimulation with peptide of clone 2 (7002 CD4+ clone 2; [5]): 0 pg/mL
- IFN-γ production after stimulation with peptide of clone 2 (7002 CD4+ clone 2; [6]): >4000 pg/mL
- IFN-γ production after stimulation with peptide of clone 2 (7002 CD4+ clone 2; [7]): >4000 pg/mL
- IFN-γ production after stimulation with peptide of clone 2 (7002 CD4+ clone 2; [8]): 3993 pg/mL
- IFN-γ production after stimulation with peptide of clone 2 (7002 CD4+ clone 2; [9]): >4000 pg/mL
- IFN-γ production after stimulation with peptide of clone 2 (7002 CD4+ clone 2; [10]): >4000 pg/mL
- IFN-γ production after stimulation with peptide of clone 2 (7002 CD4+ clone 2; [11]): >4000 pg/mL
- IFN-γ production after stimulation with peptide of clone 2 (7002 CD4+ clone 2; [12]): 0 pg/mL
- IFN-γ production after stimulation with peptide of clone 2 (7002 CD4+ clone 2; [13]): >4000 pg/mL
- IFN-γ production after stimulation with peptide of clone 2 (7002 CD4+ clone 2; [14]): 0 pg/mL
- IFN-γ production after stimulation with peptide of clone 2 (7002 CD4+ clone 2; [15]): 3153 pg/mL
- IFN-γ production after stimulation with peptide of clone 2 (7002 CD4+ clone 2; [16]): 0 pg/mL
- IFN-γ production after stimulation with peptide of clone 2 (7002 CD4+ clone 2; [17]): 0 pg/mL
- IFN-γ production after stimulation with peptide of clone 2 (7002 CD4+ clone 2; [18]): 0 pg/mL
- IFN-γ production after stimulation with peptide of clone 2 (7002 CD4+ clone 2; [19]): 4 pg/mL
- IFN-γ production after stimulation with peptide of clone 2 (7002 CD4+ clone 2; [20]): 0 pg/mL
- IFN-γ production after stimulation with peptide of clone 2 (7002 CD4+ clone 2; [21]): 0 pg/mL
- secretion of IFN-γ by clone 2 (7002 CD4+ clone 2; peptide at 10 ng/ml, HLA-DR13 EBV-B cells): stimulated secretion of IFN-γ

B1: MAGE-A3: MAGE-A3 protein; recombinant His-MAGE-A3 produced in E. coli, or expressed from MFG MAGE-A3 retrovirus in Example 6 (protein, listed as Homo sapiens)
chain: MPLEQRSQHCKPEEGLEARGEALGLVGAQAPATEEQEAASSSSTLVEVTLGEVPAAESPDPPQSPQGASSLPTTMNYPLWSQSYEDSSNQEEEGPSTFPDLESEFQAALSRKVAELVHFLLLKYRAREPVTKAEMLGSVVGNWQYFFPVIFSKASSSLQLVFGIELMEVDPIGHLYIFATCLGLSYDGLLGDNQIMPKAGLLIIVLAIIAREGDCAPEEKIWEELSVLEVFEGREDSILGDPKKLLTQHFVQENYLEYRQVPGSDPACYEFLWGPRALVETSYVKVLHHMVKISGGPHISYPPLHEWVLREGEE
modifications: His tag
- IFN-γ secretion by clone 22 upon stimulation with protein-loaded autologous EBV-B cells (LB1158 CD4+ clone 22): secreted IFN-γ
- IFN-γ secretion by clone 2 upon stimulation with protein-loaded autologous EBV-B cells (7002 CD4+ clone 2): secreted IFN-γ

— US6716809B1, “Mage-A3 peptides presented by HLA class molecules” (priority 1997, dated 2004)
